Patent publication US10392368B2, “Pyrazolo and triazolo bicyclic compounds as JAK kinase inhibitors” (THERAVANCE BIOPHARMA R&D IP, LLC, priority 2017, dated 2019)

Assays:
Tyk2 = target: T1, Tyk2 (Homo sapiens, UniProt P29597); assay: Biochemical Tyk2 kinase assay (LanthaScreen); conditions: for Ki: read-out: Tyk 2 (pKi) (converted)
T1 construct: GST; purchased Life Technologies
In short: (§1)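 GST-JAK + GFP-STAT1 peptide + cpd, 1 h preinc RT; ATP start, 1% DMSO, 1 h RT; stop 10 mM EDTA + 2 nM Tb-anti-pSTAT1; 1 h; TR-FRET 520/495. % inhib vs DMSO/background → IC50 (4-PL) → pKi (Cheng-Prusoff).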

[1] = tested on: IL-2 stimulated pSTAT5 in Tall-1 T cells; assay: Cellular JAK3 potency assay: inhibition of IL-2 stimulated pSTAT5 in Tall-1 T cells; format: cell-based, human; conditions: for Tall-1 (pIC50): IL-2 stimulated pSTAT5 in Tall-1 T cells; for IC50: Homo sapiens, TALL-1, IL-2 stimulated pSTAT5 in Tall-1 T cells, read-out: Tall-1 (pIC50) (converted)
In short: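 In human Tall-1 T cells, IL-2 (300 ng/ml final, 30 min) drives STAT5 phosphorylation after a 1 h compound pretreatment. Lysates are assayed for pSTAT5 by AlphaLisa, and IC50 derived from signal versus concentration is expressed as pIC50.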

JAK2 = target: T2, JAK2 (Homo sapiens, UniProt O60674); assay: Biochemical JAK2 kinase assay (LanthaScreen); conditions: for Ki: read-out: JAK 2 (pKi) (converted)
T2 construct: GST; purchased Life Technologies
T2 sequence (O60674 whole entry): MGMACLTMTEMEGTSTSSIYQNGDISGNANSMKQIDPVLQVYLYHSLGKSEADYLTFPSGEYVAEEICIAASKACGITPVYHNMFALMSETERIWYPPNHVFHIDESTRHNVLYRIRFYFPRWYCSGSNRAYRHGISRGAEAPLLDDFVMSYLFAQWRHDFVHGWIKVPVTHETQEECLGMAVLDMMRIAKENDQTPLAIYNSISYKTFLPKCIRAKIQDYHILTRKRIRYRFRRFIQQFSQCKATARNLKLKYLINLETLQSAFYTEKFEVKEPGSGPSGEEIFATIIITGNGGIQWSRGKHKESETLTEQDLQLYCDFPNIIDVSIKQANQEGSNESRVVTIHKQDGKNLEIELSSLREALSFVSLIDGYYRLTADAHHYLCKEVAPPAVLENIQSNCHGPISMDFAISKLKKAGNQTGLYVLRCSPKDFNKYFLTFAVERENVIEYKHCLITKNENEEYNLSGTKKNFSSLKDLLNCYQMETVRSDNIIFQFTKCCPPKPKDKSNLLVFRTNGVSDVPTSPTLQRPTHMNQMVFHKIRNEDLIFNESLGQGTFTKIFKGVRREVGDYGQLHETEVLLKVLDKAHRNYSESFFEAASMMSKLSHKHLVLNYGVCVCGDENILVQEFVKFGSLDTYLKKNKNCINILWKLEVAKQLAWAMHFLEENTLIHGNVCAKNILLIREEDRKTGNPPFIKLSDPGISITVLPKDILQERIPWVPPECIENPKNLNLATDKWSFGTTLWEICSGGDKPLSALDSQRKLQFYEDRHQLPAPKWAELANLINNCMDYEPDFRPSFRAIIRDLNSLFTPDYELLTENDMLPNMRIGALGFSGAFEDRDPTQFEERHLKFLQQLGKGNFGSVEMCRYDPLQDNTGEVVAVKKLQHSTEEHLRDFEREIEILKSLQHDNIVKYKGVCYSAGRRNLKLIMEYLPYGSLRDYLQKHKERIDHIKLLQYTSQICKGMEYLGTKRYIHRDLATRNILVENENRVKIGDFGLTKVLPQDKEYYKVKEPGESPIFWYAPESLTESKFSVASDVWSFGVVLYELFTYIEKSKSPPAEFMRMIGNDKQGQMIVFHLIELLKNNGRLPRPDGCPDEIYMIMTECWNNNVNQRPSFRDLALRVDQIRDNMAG
In short: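 GST-tagged recombinant JAK2 pre-incubated 1 h at ambient temperature with compound and GFP-STAT1 peptide in HEPES pH 7.5/MgCl2 buffer, then ATP added for a 1 h reaction with 1% DMSO. TR-FRET read after EDTA and Tb-anti-pSTAT1 (pTyr701) addition; IC50 from 4-parameter fit, converted to pKi by Cheng-Prusoff.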

JAK3 = target: T3, JAK3 (Homo sapiens, UniProt P52333); assay: Biochemical JAK3 kinase assay (LanthaScreen); set-up: GST; purchased Life Technologies; conditions: for JAK3 (pKi)-JAK1 (pKi): selectivity: difference of pKi JAK3 and pKi JAK1; for Ki: read-out: JAK 3 (pKi) (converted)
T3 sequence (P52333 1-1124): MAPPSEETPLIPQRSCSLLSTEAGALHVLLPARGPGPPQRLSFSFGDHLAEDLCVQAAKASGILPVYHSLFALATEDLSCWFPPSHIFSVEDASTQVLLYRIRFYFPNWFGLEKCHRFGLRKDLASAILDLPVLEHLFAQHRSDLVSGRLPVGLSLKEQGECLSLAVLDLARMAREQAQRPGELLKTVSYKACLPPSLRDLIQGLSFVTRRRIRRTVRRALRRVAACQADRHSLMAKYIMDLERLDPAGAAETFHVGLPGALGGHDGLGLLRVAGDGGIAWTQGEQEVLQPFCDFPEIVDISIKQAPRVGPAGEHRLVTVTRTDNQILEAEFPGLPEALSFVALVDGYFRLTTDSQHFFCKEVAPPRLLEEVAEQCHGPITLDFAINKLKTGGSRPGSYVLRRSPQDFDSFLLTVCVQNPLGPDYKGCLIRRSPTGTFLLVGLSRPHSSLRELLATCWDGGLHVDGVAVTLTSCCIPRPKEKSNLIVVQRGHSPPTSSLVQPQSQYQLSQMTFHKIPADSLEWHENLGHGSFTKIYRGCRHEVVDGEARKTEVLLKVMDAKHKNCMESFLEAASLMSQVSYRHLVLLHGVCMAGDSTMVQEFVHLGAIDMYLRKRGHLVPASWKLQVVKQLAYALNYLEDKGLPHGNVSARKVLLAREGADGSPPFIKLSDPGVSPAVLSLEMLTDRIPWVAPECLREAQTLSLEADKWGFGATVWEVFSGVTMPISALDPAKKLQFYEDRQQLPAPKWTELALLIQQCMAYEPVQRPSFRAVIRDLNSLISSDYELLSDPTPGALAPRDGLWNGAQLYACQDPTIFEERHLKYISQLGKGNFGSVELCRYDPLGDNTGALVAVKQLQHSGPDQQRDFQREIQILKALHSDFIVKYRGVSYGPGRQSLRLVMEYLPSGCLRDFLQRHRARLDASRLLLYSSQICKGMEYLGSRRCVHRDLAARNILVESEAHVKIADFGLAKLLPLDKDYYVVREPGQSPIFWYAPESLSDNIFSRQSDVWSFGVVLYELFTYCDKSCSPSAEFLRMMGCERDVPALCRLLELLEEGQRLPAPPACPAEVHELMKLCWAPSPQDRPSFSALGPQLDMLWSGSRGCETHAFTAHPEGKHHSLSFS
In short: as §1

JAK1 = target: T4, JAK1 (Homo sapiens, UniProt P23458); assay: Biochemical JAK1 kinase assay (LanthaScreen); conditions: for Ki: read-out: JAK 1 (pKi) (converted)
T4 construct: GST; purchased Life Technologies
T4 sequence (P23458 whole entry): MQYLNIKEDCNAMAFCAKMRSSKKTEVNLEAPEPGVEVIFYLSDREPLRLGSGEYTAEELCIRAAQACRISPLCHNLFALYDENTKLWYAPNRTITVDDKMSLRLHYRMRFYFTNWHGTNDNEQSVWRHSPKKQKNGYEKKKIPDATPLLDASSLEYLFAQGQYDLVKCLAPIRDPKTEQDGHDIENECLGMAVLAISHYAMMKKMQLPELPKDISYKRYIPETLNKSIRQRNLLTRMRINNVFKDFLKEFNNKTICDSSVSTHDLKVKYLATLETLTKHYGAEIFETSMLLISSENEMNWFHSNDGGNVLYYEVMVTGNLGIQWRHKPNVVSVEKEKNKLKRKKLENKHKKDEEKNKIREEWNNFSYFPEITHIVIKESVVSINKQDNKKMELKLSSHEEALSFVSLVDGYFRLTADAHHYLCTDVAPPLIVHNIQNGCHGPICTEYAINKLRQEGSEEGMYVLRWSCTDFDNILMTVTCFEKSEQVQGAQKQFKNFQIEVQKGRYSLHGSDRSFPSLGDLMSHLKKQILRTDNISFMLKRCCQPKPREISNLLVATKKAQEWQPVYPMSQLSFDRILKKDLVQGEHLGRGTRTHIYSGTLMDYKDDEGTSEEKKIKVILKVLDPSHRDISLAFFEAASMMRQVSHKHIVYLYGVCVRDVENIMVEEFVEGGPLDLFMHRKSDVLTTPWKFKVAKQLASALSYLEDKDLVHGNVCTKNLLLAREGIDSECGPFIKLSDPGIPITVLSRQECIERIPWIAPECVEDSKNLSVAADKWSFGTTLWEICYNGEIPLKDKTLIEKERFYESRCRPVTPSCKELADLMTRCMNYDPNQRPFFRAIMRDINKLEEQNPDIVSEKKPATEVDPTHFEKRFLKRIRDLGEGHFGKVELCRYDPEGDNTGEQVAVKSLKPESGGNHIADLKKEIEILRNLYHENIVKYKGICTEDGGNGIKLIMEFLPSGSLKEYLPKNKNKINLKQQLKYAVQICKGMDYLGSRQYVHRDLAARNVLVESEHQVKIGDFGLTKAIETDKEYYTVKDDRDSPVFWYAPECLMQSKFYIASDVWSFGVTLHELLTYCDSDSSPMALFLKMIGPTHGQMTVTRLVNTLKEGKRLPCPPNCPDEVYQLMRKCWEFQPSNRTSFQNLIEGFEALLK
In short: as §1

T1 sequence (P29597 whole entry): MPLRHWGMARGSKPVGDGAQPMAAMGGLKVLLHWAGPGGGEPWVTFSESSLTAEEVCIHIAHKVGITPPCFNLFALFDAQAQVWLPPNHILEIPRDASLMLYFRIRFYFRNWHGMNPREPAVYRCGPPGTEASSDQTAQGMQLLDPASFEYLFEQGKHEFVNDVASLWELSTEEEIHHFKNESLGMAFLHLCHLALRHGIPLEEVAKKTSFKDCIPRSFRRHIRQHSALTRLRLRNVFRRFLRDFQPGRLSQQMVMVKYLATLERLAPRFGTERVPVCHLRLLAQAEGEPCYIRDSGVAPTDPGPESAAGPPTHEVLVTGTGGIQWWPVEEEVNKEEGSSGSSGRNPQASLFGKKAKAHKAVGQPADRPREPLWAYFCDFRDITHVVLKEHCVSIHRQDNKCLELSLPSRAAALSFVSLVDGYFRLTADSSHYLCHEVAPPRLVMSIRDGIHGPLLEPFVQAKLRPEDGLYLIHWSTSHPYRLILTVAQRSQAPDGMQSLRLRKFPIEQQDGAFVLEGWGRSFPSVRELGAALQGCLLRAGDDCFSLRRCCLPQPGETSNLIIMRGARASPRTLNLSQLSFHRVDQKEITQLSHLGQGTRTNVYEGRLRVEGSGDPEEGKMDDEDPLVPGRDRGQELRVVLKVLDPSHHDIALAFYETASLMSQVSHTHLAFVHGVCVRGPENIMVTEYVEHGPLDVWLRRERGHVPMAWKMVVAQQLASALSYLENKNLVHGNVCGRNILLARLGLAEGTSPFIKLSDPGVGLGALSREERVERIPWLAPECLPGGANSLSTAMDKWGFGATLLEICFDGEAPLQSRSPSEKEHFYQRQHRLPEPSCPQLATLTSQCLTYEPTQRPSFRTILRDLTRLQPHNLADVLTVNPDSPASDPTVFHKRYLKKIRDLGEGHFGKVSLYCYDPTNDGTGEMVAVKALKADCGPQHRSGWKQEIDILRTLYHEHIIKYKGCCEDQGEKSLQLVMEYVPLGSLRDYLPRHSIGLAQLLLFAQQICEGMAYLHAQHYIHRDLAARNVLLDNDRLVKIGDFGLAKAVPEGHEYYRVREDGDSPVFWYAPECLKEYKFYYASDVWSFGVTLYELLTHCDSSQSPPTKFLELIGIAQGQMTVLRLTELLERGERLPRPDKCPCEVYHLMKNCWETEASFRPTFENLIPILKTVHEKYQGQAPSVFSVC

SMILES	Tyk 2 (pKi) (Tyk2)	Tall-1 (pIC50) [1]	JAK 2 (pKi) (JAK2)	JAK 3 (pKi) (JAK3)	JAK3 (pKi)-JAK1 (pKi) (JAK3)	JAK 1 (pKi) (JAK1)	Ki (Tyk2) [nM]	IC50 [1] [nM]	Ki (JAK2) [nM]	Ki (JAK3) [nM]	Ki (JAK1) [nM]
C=CC(=O)N1CC(C)(COc2nc(-c3ccc(O)c(Cl)c3)cc3[nH]ncc23)C1 [Compound 3-97]	E (a pKi value of 7 or below (Ki of 100 nM or above))	A (a pIC50 value≥7.5 (IC50≤32 nM))	E (a pKi value of 7 or below (Ki of 100 nM or above))	B (a pKi value between 9 and 10 (Ki between 1 nM and 0.1 nM))	B (a value of 2.3 to 3)	E (a pKi value of 7 or below (Ki of 100 nM or above))					
C=CC(=O)N1CC(C)(COc2cc(-c3ccc(O)c(F)c3)nc3[nH]ncc23)C1 [Compound 3-98]					A (a value of 3 or above)		> 100	31.6 to 200	> 100	< 0.1	> 100
CCC1(COc2nc(-c3ccc(O)c(Cl)c3)cc3[nH]ncc23)CN(C(=O)/C=C/CN(C)C)C1 [Compound 3-99]	E (a pKi value of 7 or below (Ki of 100 nM or above))	A (a pIC50 value≥7.5 (IC50≤32 nM))	E (a pKi value of 7 or below (Ki of 100 nM or above))	A (a pKi value≥10 (Ki≤0.1 nM))	A (a value of 3 or above)	E (a pKi value of 7 or below (Ki of 100 nM or above))					
CCC1(COc2nc(-c3ccc(O)c(F)c3)cc3[nH]ncc23)CN(C(=O)/C=C/CN(C)C)C1 [Compound 3-100]	E (a pKi value of 7 or below (Ki of 100 nM or above))	A (a pIC50 value≥7.5 (IC50≤32 nM))	E (a pKi value of 7 or below (Ki of 100 nM or above))	B (a pKi value between 9 and 10 (Ki between 1 nM and 0.1 nM))	A (a value of 3 or above)	E (a pKi value of 7 or below (Ki of 100 nM or above))					
C=CC(=O)N1CC(CC)(COc2nc(-c3ccc(O)c(F)c3)cc3[nH]ncc23)C1 [Compound 3-101]	E (a pKi value of 7 or below (Ki of 100 nM or above))	A (a pIC50 value≥7.5 (IC50≤32 nM))	D (a pKi value between 7 and 8 (Ki between 100 nM and 10 nM))	A (a pKi value≥10 (Ki≤0.1 nM))	A (a value of 3 or above)	E (a pKi value of 7 or below (Ki of 100 nM or above))					
CN(C)C/C=C/C(=O)N1CC(C#N)(COc2nc(-c3ccc(O)cc3)cc3[nH]ncc23)C1 [Compound 3-102]					A (a value of 3 or above)		> 100	31.6 to 200	> 100	0.1 to 1	> 100
C=CC(=O)N1CC(C#N)(COc2nc(-c3ccc(O)cc3)cc3[nH]ncc23)C1 [Compound 3-103]					A (a value of 3 or above)		> 100	< 31.6	10 to 100	< 0.1	> 100
C=CC(=O)N1CC(C#N)(COc2nc(-c3ccc(O)cc3)nc3[nH]ncc23)C1 [Compound 3-104]					A (a value of 3 or above)		> 100	< 31.6	> 100	< 0.1	> 100
CN(C)C/C=C/C(=O)N1CC(C#N)(COc2nc(-c3ccc(O)c(F)c3)cc3[nH]ncc23)C1 [Compound 3-106]	E (a pKi value of 7 or below (Ki of 100 nM or above))	B (a pIC50 value between 6.7 (included) and 7.5 (IC50 between 200 nM and 32 nM))	E (a pKi value of 7 or below (Ki of 100 nM or above))	B (a pKi value between 9 and 10 (Ki between 1 nM and 0.1 nM))	A (a value of 3 or above)	E (a pKi value of 7 or below (Ki of 100 nM or above))					
C=CC(=O)N1CC(C#N)(COc2nc(-c3ccc(O)c(Cl)c3)cc3[nH]ncc23)C1 [Compound 3-107]	E (a pKi value of 7 or below (Ki of 100 nM or above))	A (a pIC50 value≥7.5 (IC50≤32 nM))	E (a pKi value of 7 or below (Ki of 100 nM or above))	A (a pKi value≥10 (Ki≤0.1 nM))	A (a value of 3 or above)	E (a pKi value of 7 or below (Ki of 100 nM or above))					
C=CC(=O)N1CC(C#N)(COc2nc(-c3ccc(O)c(F)c3)cc3[nH]ncc23)C1 [Compound 3-108]	E (a pKi value of 7 or below (Ki of 100 nM or above))	A (a pIC50 value≥7.5 (IC50≤32 nM))	D (a pKi value between 7 and 8 (Ki between 100 nM and 10 nM))	A (a pKi value≥10 (Ki≤0.1 nM))	A (a value of 3 or above)	E (a pKi value of 7 or below (Ki of 100 nM or above))					
C=CC(=O)N1CC(C#N)(COc2nc(-c3ccc(O)c(Cl)c3)nc3[nH]ncc23)C1 [Compound 3-109]					A (a value of 3 or above)		> 100	31.6 to 200	> 100	0.1 to 1	> 100
C=CC(=O)N1CC(C#N)(COc2nc(-c3ccc(O)c(F)c3)nc3[nH]ncc23)C1 [Compound 3-110]					A (a value of 3 or above)		> 100	31.6 to 200	> 100	0.1 to 1	> 100
C=CC(=O)N1CC(C#N)(COc2cc(-c3ccc(O)c(F)c3)nc3[nH]ncc23)C1 [Compound 3-111]	E (a pKi value of 7 or below (Ki of 100 nM or above))	C (a pIC50 value between 6 and 6.7 (IC50 between 1 μM and 200 nM))	E (a pKi value of 7 or below (Ki of 100 nM or above))	B (a pKi value between 9 and 10 (Ki between 1 nM and 0.1 nM))	A (a value of 3 or above)	E (a pKi value of 7 or below (Ki of 100 nM or above))					
C=C(CN(C)C)C(=O)N1CC(COc2nc(-c3ccc(O)cc3)nc3[nH]ncc23)C1 [Compound 3-112]					A (a value of 3 or above)		> 100	31.6 to 200	> 100	0.1 to 1	> 100
C=CC(=O)N1CC(COc2cc(-c3ccc(O)cc3)cc3[nH]ncc23)C1C (stereo not drawn) [Compound 3-114]	E (a pKi value of 7 or below (Ki of 100 nM or above))	A (a pIC50 value≥7.5 (IC50≤32 nM))	E (a pKi value of 7 or below (Ki of 100 nM or above))	B (a pKi value between 9 and 10 (Ki between 1 nM and 0.1 nM))	A (a value of 3 or above)	E (a pKi value of 7 or below (Ki of 100 nM or above))					
CN1CCC[C@H]1/C=C/C(=O)N1CC(COc2cc(-c3ccc(O)cc3)cc3[nH]ncc23)C1 [Compound 3-115]					A (a value of 3 or above)		> 100	31.6 to 200	0.1 to 1	0.1 to 1	> 100
CN(C/C=C/C(=O)N1CC(COc2cc(-c3ccc(O)cc3)cc3[nH]ncc23)C1)C(C)(C)C [Compound 3-116]					B (a value of 2.3 to 3)		> 100	31.6 to 200	10 to 100	0.1 to 1	> 100
